Reference: US9567649B2, “System for identification of microorganism and detection of infectious disease” (priority 2011, dated 2017)

B1: S(Topl): REEAD sensor previously demonstrated to react specifically with hTopl in human cell extract (SEQ ID NO: 25) (nucleic acid)
chain: AGAAAAATTTTTAAAAAAACTGTGAAGATCGCTTATTTTTTTAAAAATTTTTCTAAGTCTTTTAGATCCCTCAATGCTGCTGCTGTACTACGATCTAAAAGACTTAGA
modifications: chemistry not given here

Experiments:
Type in all cases: biochemical, Plasmodium falciparum
pfTopl [1] = test: DNA cleavage-ligation assay with radio-labeled duplex DNA in absence or presence of CPT; settings: 60 nM CPT, duplex OL62/OL63, 20 min at 37° C.
Experimental: Detection of PfTopl activity using radio-labeled DNA substrates: DNA cleavage reactions were carried out by incubating 20 nM duplex OL37/OL56 or OL62/OL63 with 500 fmol of pfTopl or hTopl in the absence or presence of 60 nM CPT for 20 min at 37° C. in 10 mM Tris (pH 7.5), 5 mM MgCI2, and 5 mM CaCI2 in a final volume of 20 μI. After the 20 min incubation, reactions were stopped with 0.5% (w/v) SDS. Samples were subjected to ethanol precipitation, resuspended in 10 μI of 1 mg/ml trypsin and incubated at 37° C. for 30 min. Reaction products were analyzed by denaturing polyacrylamide gel electrophoresis following standard procedures, and radioactive bands were visualized by PhosphorImaging.

pfTopl [2] = test: REEAD: circularization of oligonucleotide sensors by purified pfTopl; settings: control-circle added
Text: Like human topoisomerasel (hTopl), pfTopl belongs to the family of nuclear typelB topoisomerases, which introduce transient single-strand breaks in double-stranded DNA with preference for a very degenerate consensus sequence. Cleavage results in a covalent enzyme-DNA intermediate allowing religation of the generated nick (FIG. 23). […] Based on this, five different oligonucleotides with potential of being circularized specifically by pfTopl cleavage-ligation were designed. These oligonucleotides (PfTopl (S1-S5)) all folded into a hairpin structure containing a probe- and a primer-annealing sequence in the single-stranded loop and a potential pfTopl recognizable sequence at the end of the double-stranded stem region (FIG. 1 b). […] To allow comparative quantification of signals generated in different reactions, a known concentration of control-circle with a unique probe-annealing sequence was added to the reaction mixtures before RCA and resulting RCPs visualized using a green-fluorescent probe. […]
(§1) REEAD-microscopic readout: The 5′-amine-conjugated primer was coupled to CodeLink Activated Slides (SurModics) according to the manufacturer's description. […] Quantification of pfTopl specific signals was performed as previously described^1. REEAD-HRP readout: Primer coupling to NHS-activated M-PVA Akl 1 magnetic beads (Chemagen) was performed according to the manufacturer's description. […]

pfTopl [3] = test: REEAD in nuclear extract from HEK293T cells with or without spike-in pfTopl
Text: The specificity of pfTopl(S1) for pfTopl in crude biological samples was addressed using nuclear extract from human HEK293T cells with or without spike-in pfTopl as a model for Plasmodium infection. […] Consequently, green signals observed in FIG. 22b, right panel, originated from hTopl and pfTopl activity in combination where pfTopl(S1) and S(Topl) competed for reaction by pfTopl at the expense of sensitivity.
Cell culture and nuclear extract preparation: Human embryonic kidney HEK293T cells were cultured in Dulbecco's Modified Eagle Medium (GIBCO) supplemented with 10% fetal bovine serum (FBS) (GIBCO), 100 units/mL penicillin and […] streptomycin (Invitrogen). Cells were incubated in a humidified incubator (5% CO2/95% air atmosphere at 37° C.). Cells were harvested with 0.5% Trypsin-EDTA (GIBCO).
Media was discarded and the cell washed in Phosphate-Buffered Saline (1×PBS) prior to nuclear extraction performed as previously described′. […]
as §1

Molecule	effect of camptothecin on pfTopl ligation product (pfTopl [1])	circularization efficiency by pfTopl (red signals relative to green signals) (pfTopl [2])	specificity of sensor for pfTopl in nuclear extract (pfTopl [3])
CC[C@@]1(O)C(=O)OCc2c1cc1n(c2=O)Cc2cc3ccccc3nc2-1 [camptothecin]	A ligation product is only observed upon incubation of the substrate with pfTopl in the absence of camptothecin	–	–
pfTopl(S1): hairpin oligonucleotide sensor for pfTopl, sequence in the 2nd table (TCTAGAAAGTATAGGAACTTCGAACGACTCAGAATGACTG; hairpin, further chemistry not given here)	–	most efficient sensor of pfTopl	specificity of pfTopl(S1) for pfTopl even on a background of human nucleus content
B1	–	circularizes S(Topl)	–
